Test [1] relates to H1975 tumor xenograft. Description: Inhibition of tumor growth in H1975 tumor xenograft model. It is filed as in vivo, BALB/c female nude mice. The following applies: QD x 14. The procedure: H1975 cells were implanted in BALB/c female nude mice and grown as tumor xenografts. When tumors achieved 120-200 mm^3, mice were assigned into treatment and control groups using randomized block design based upon their tumor volumes. Each group contained 6 tumor-bearing mice. Tumors were measured twice weekly in two dimensions using a caliper, and the tumor volume was calculated from two-dimensional measurements using the equation V=0.5×a×b^2 where a and b are the long and short diameters of the tumor, respectively. Relative tumor volume (RTV) was defined as TVt/TVi, the ratio of the volume on a given day (TVt) and the volume at the start of treatment (TVi). Relative tumor growth rate (T/C) was defined as RTVT/RTVC, the ratio of relative tumor volume of treatment group (RTVT) and relative tumor volume of control group (RTVC) on a given day. Inhibition of tumor growth in a H1975 tumor xenograft model by some compounds is shown below in Table 6 and Table 7.

Test [2] has as its target FGFR1 (Homo sapiens (Human), UniProt P11362). Description: Z'-LYTE kinase inhibition assay, FGFR1. It is filed as biochemical. As to conditions: compound at 0.041 μM. The procedure:
Inhibitory activities of compounds against BTK, EGFR and EGFR mutants (EGFR L858R, EGFR T790M, EGFR L858R/T790M), FGFR1, FGFR2, JAK2, JAK3 and KDR were measured by Invitrogen using Z′-LYTE® Method as briefly described in the following.
Test Compounds are screened in 1% DMSO (final) in the well. For 10 point titrations, 3-fold serial dilutions are conducted from the starting concentration. All ATP Solutions are diluted to a 4× working concentration in Kinase Buffer (50 mM HEPES pH 7.5, 0.01% BRIJ-35, 10 mM MgCl2, 1 mM EGTA). Peptide/Kinase Mixtures are diluted to a 2× working concentration in the appropriate Kinase Buffers as described below.
(v) Peptide/Kinase Mixtures for measurement of FGFR1:
The 2×FGFR1/Tyr 04 mixture is prepared in 50 mM HEPES pH 7.5, 0.01% BRIJ-35, 10 mM MgCl2, 4 mM MnCl2, 1 mM EGTA, 2 mM DTT. The final 10 μL Kinase Reaction consists of 0.41-3.5 ng FGFR1 and 2 μM Tyr 04 in 50 mM HEPES pH 7.5, 0.01% BRIJ-35, 10 mM MgCl2, 2 mM MnC12, 1 mM EGTA, 1 mM DTT. After the 1 hour Kinase Reaction incubation, 5 μL of a 1:64 dilution of Development Reagent B is added.
Reaction starts by 30-second shaking of mixture consisting of 2.5 μL 4× test compound, 5 μL 2× kinase reaction mixture and 2.5 μL 4×ATP Solution on Bar-coded Corning, low volume NBS, black 384-well plate (Corning Cat. #3676). […] Finally fluorescence is read by plate reader. […]

Where [3] appears, read: Table 6, 30 mg/kg, Intraperitoneal injection.

Chain of FGFR1 (P11362 22-822): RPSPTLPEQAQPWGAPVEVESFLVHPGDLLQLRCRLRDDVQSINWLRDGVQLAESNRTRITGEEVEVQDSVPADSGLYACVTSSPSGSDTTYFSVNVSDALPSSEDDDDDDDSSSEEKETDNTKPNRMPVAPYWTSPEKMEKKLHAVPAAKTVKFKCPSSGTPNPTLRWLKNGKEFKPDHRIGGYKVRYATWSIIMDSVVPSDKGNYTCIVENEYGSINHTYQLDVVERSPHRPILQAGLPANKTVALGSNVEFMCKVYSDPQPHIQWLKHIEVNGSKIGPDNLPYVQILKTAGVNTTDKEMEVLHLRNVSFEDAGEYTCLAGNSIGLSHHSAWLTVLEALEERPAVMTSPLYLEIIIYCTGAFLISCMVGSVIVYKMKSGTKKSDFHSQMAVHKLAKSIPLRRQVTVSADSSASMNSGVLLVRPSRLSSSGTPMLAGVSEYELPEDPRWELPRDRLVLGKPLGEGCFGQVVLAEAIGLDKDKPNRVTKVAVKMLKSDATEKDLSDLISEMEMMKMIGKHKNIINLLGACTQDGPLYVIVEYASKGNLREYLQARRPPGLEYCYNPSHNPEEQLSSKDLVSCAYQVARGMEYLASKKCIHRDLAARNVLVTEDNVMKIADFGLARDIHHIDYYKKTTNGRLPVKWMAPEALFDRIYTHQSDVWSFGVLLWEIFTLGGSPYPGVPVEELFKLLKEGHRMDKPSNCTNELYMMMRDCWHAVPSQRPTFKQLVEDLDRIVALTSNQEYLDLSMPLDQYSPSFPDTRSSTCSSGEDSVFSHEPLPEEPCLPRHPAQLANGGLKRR

A word on the T/C: it is the result in the treated group divided by that in the control group, in per cent. In turn, `C=CC(=O)Nc1cccc(-c2cccc3cnc(Nc4ccc(N5CCN(C)CC5)cc4)nc23)c1` [Example C021, N-(3-(2-((4-(4-methylpiperazin-1-yl)phenyl)amino)quinazolin-8-yl)phenyl)acrylamide] registered a T/C in test [1] (Table 6, 60 mg/kg, Oral) of 30.5%.
One may read the inhibition as the relative decrease from the control value, in per cent. High values mean strong suppression, low ones little suppression. With `C=CC(=O)Nc1cccc(-c2cccc3cnc(Nc4ccc(N5CCN(C(C)=O)CC5)cc4)nc23)c1` [Example C032, N-(3-(2-((4-(4-acetylpiperazin-1-yl)phenyl)amino)quinazolin-8-yl)phenyl)acrylamide], in test [2], the inhibition at 0.041 µM is more than 50%.
In turn, `C=CC(=O)Nc1cccc(-c2cccc3cnc(Nc4ccc(N5CCN(C)CC5)nc4)nc23)c1` [Example C041, N-(3-(2-((6-(4-methylpiperazin-1-yl)pyridin-3-yl)amino)quinazolin-8-yl)phenyl)acrylamide] displayed a T/C in test [1] (setting [3]) of 48.7%.
Consider `C=CC(=O)Nc1cccc(-c2cccc3cnc(Nc4ccc(N5CCN(CCO)CC5)cc4)nc23)c1` [Example C059, N-(3-(2-((4-(4-(2-hydroxyethyl)piperazin-1-yl)phenyl)amino)quinazolin-8-yl)phenyl)acrylamide], for which, in test [1] (Table 6, 60 mg/kg, Oral), the T/C is 35.3%.
For the compound `C=CC(=O)Nc1cccc(-c2cccc3cnc(Nc4ccc(NC5CN(CCF)C5)cc4)nc23)c1` [Example C103, N-(3-(2-((4-((1-(2-fluoroethyl)azetidin-3-yl)amino)phenyl)amino)quinazolin-8-yl)phenyl)acrylamide], in test [1] (setting [3]), the T/C is listed as 35.8%.
Same read-out and setting: the value for `C=CC(=O)Nc1cccc(-c2cccc3cnc(Nc4ccc(OCCOC)cc4)nc23)c1` [Example C107, N-(3-(2-((4-(2-methoxyethoxy)phenyl)amino)quinazolin-8-yl)phenyl)acrylamide] was 63.6%.
The compound `C=CC(=O)Nc1cccc(-c2cccc3cnc(Nc4ccc(N5CCN(CCO)CC5)cc4F)nc23)c1` [Example C147, N-(3-(2-((2-fluoro-4-(4-(2-hydroxyethyl)piperazin-1-yl)phenyl)amino)quinazolin-8-yl)phenyl)acrylamide] gave a T/C in test [1] (Table 7, 60 mg/kg, Oral) of 55.7%.
Still for that read-out and setting: the value for `C=CC(=O)Nc1cccc(-c2cccc3cnc(Nc4ccc(N5CCN(CCO)CC5)c(F)c4F)nc23)c1` [Example C151, N-(3-(2-((2,3-difluoro-4-(4-(2-hydroxyethyl)piperazin-1-yl)phenyl)amino)quinazolin-8-yl)phenyl)acrylamide] was 28.6%; that for `C=CC(=O)Nc1cccc(-c2cccc3cnc(Nc4ccc(N5CCN(C)CC5)c(F)c4F)nc23)c1` [Example C156, N-(3-(2-((2,3-difluoro-4-(4-methylpiperazin-1-yl)phenyl)amino)quinazolin-8-yl)phenyl)acrylamide] was 36.8%.
